The nature of data set [1]: Pharmacokinetic test in rats. Type of data set: in vivo. Conditions: rat, male SD rats, plasma; for Vd: read-out: Vdss.
Data set [2] has as its system testosterone level in NCI-H295R cells. The experiment in a line: cells. Type of data set: cell-based. Particulars: Homo sapiens, NCI-H295R, 72 h; for IC50: read-out: Testosterone level in H295R (Elisa) IC50 nM.
The nature of data set [3]: Pharmacokinetic test in mice. Particulars: mouse, male ICR mice, plasma; for Vd: read-out: Vdss. Type of data set: in vivo. The procedure: 4.1. Experimental animals: Male ICR mice, 20-25 g, 6 mice/compound, were purchased from Chengdu Dossy Experimental Animals Co., Ltd.
4.2 Experimental design: on the day of the experiment, the ICR mice were randomly grouped according to their body weights. […] Table 6 Administration information
Before and after administration, 0.06 mL of blood was taken from the orbit under isoflurane anaesthesia and placed in an EDTAK2 centrifuge tube. The tube was centrifuged at 5000 rpm at 4°C for 10 min, and plasma was collected. […] Before analysis and detection, all samples were stored at -80°C, and the samples were quantitatively analysed by LC-MS/MS.

The test system of data set [4] is pregnenolone level in NCI-H295R cells. The experiment in a line: cells. Particulars: Homo sapiens, 72 h; for IC50: read-out: Pregnenolone level in H295R (Elisa) IC50 nM. It is filed as cell-based. The procedure:
2. The purpose of the experimental study was intended to detect the pregnenolone level in the NCI-H295R cells by adopting the Enzyme linked immunosorbent assay (ELISA), so as to evaluate the inhibitory effects of the compounds on the pregnenolone level in the NCI-H295R cells.
The H295R cells were purchased from ATCC (CRL-2128), the cell complete medium contained DMEM: F12+ 10% FBS +0.00625 mg/ml insulin+0.00625 mg/mL transferrin+6.25 ng/mL selenium+1.25 mg/mL BSA+0.00535 mg/mL linoleic acid, and the cells were cultured in a 37°C, 5% CO2 incubator. The cells in the exponential growth phase were collected, and cultured in a cytokine-free medium (phenol red 1640-free +1% PS+10% css FBS+1.25 mg/mL BSA +0.00625 mg/mL insulin+0.00625 mg/mL transferrin+6.25 ng/mL selenium+0.00535 mg/mL linoleic acid) for three days. The cells in the exponential growth phase were collected on the third day. The cell suspension was adjusted with a cytokine-free medium to a corresponding concentration and plated at 60000 cells/well, with the volume being 90 µL/well. Subsequently, 10 µL of the compounds at different concentrations was added and the plate was incubated in a CO2 incubator for three days. After the incubation was completed, the cell culture supernatant was collected and centrifuged at 2°C-8°C at 800×g for 10 min. The resulting supernatant was collected. Determination was carried out according to the operation instructions for pregnenolone Elisa kit (Antibodies-A73791), and the OD450 signal was read.
2.1 Standard curve plotting. The standard concentration was taken as the abscissa and the OD450 value as the ordinate, the coordinate points of various standards were connected with a smooth line and a curve was fitted according to the four parameter logistic (4-PL) method.
2.2 Sample quantification: The corresponding concentration (CONC) of testosterone/pregnenolone in the sample was calculated using the absorbance value of the sample and the standard curve. According to formula (1), the inhibition rate of the compound at various concentrations was calculated, and S-shaped concentration curves were plotted and the IC50 values (i.e., concentration of the compound at which the inhibition rate was 50%) were calculated using a three parameter non-linear regression model in Graphpad Prim 8.0 software. CONC cpd was the concentration of the treated group, and CONC ctrl was the average concentration value of the solvent control group. Inhibition rate% = 100%−CONCcpd /CONCctrl × 100% [formula] Table 3 Inhibitory effects of compounds on pregnenolone level in NCI-H295R cells

Setting [5] is: po, intragastric administration (10 mg/kg).
The mark [6] stands for this setting: intravenous administration (2.5 mg/kg).
Where [7] appears, read: read-out: Testosterone level in H295R (Elisa) inh.% 100 nM.
Where [8] appears, read: read-out: Testosterone level in H295R (Elisa) inh.% 1000 nM.

We go through three molecules from patent EP4692079A1, “CYP11A1 INHIBITOR AND USE THEREOF” (priority 2023, dated 2024).

Where two headings read alike, the source gives them in different places.

`CS(=O)(=O)N1CC(OC(=O)N2CCC(COc3coc(CN4Cc5ccc(C(F)(F)F)cc5C4)cc3=O)CC2)C1` [Compound 17]: the AUC(0-t) in data set [1] (setting [5]) was 5.24 µg·h/mL; in data set [1] (setting [6]), 1.68 µg·h/mL; in data set [3] (setting [5]), 17.8 µg·h/mL; in data set [3] (setting [6]) it was 4.79 µg·h/mL. The half-life in data set [1] (setting [5]) is 2.72 h; in data set [1] (setting [6]), 1.59 h; in data set [3] (setting [5]), 2.42 h; in data set [3] (setting [6]) it was 2.96 h. Besides, the clearance in data set [1] (setting [6]) was 1.46 L/h/kg; in data set [3] (setting [6]) it was 0.524 L/h/kg. Moreover, the figures for the Vd in data set [1] (setting [6]) and in data set [3] (setting [6]) were 2.53 L/kg and 1.81 L/kg, respectively. The inhibition at 0.1 µM in data set [2] (read-out: Testosterone level in H295R (Elisa) inh.% 100 nM, 100 nM compound, NCI-H295R cells, three days incubation) turned out to be 91.6%; in data set [4] (read-out: Pregnenolone level in H295R (Elisa) inh.% 100 nM), 64.9%. The inhibition at 1 µM is 93.6% in data set [2] (read-out: Testosterone level in H295R (Elisa) inh.% 1000 nM, 1000 nM compound, NCI-H295R cells, three days incubation) and 75.2% in data set [4] (read-out: Pregnenolone level in H295R (Elisa) inh.% 1000 nM). For the same molecule, in data set [4], the IC50 was 773 nM.
As to `[2H]C([2H])([2H])n1cc(C(=O)N[C@H]2CC[C@H](/C=C/c3coc(CN4Cc5ccc(C(F)(F)F)cc5C4)cc3=O)CC2)cn1` [Compound 81], the exposure AUC(0-t) in data set [1] (setting [5]) was 40.5 µg·h/mL; in data set [1] (setting [6]), 12.9 µg·h/mL; in data set [3] (setting [5]), 68.5 µg·h/mL; in data set [3] (setting [6]), 22.6 µg·h/mL. In addition, the half-life in data set [1] (setting [5]) is 4.29 h; in data set [1] (setting [6]) it was 3.18 h; in data set [3] (setting [5]) it was 5.38 h; in data set [3] (setting [6]), 6.99 h. Moreover, the clearance is 0.193 L/h/kg in data set [1] (setting [6]) and 0.101 L/h/kg in data set [3] (setting [6]). For the same molecule, the results for the Vd in data set [1] (setting [6]) and in data set [3] (setting [6]) were 0.704 L/kg and 0.86 L/kg, respectively. Moreover, the IC50 in data set [2] was found to be 102 nM; in data set [4], 146 nM. In addition, the inhibition at 0.1 µM in data set [2] (setting [7]) worked out at 63%. Further, the inhibition at 1 µM in data set [2] (setting [8]) came to 83%.
Regarding `O=C(N[C@H]1CC[C@H](/C=C/c2coc(CN3Cc4ccc(C(F)(F)F)cc4C3)cc2=O)CC1)C1CC1` [Compound 61], the area under the curve AUC(0-t) in data set [1] (setting [5]) is 17.4 µg·h/mL; in data set [1] (setting [6]), 5.59 µg·h/mL; in data set [3] (setting [5]), 32.1 µg·h/mL; in data set [3] (setting [6]), 6.08 µg·h/mL. Also, the half-life in data set [1] (setting [5]) is 3.03 h; in data set [1] (setting [6]), 2.58 h; in data set [3] (setting [5]), 3.47 h; in data set [3] (setting [6]), 3.73 h. For the same molecule, the clearance in data set [1] (setting [6]) came out at 0.449 L/h/kg; in data set [3] (setting [6]), 0.408 L/h/kg. The values for the Vd in data set [1] (setting [6]) and in data set [3] (setting [6]) were 1.42 L/kg and 1.75 L/kg, respectively. The 50% inhibitory concentration (IC50) in data set [2] is 162 nM; in data set [4], 370 nM. The inhibition at 0.1 µM in data set [2] (setting [7]) was 71%. The inhibition at 1 µM in data set [2] (setting [8]) turned out to be 79%.
